Test results as given in publication PMC8752837, “Structural basis of BAK activation in mitochondrial apoptosis initiation” (Nature Communications, 2022).
Changes are numbered by the printed parent chain.

Experiments:
[1] = target: T1, WT tevBAK (Homo sapiens, UniProt Q16611); assay: Isothermal titration calorimetry; format: binding; details: 25 °C; single site binding model
T1 construct: To generate tevBAK (residues 22–186), we cleaved off the histidine tag with TEV protease; His tag (vector pNIC28-Bsa4) (N, cleaved yes); made in house; host or cells: E. coli T7 Express pLac I/Y
T1 sequence (Q16611 22-186): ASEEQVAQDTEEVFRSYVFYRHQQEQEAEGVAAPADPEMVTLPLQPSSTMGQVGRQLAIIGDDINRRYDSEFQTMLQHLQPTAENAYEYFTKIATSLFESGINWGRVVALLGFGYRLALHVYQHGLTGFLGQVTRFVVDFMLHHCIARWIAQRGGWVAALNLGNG
Protocol: Protein samples were exchanged into 20 mM HEPES, 100 mM NaCl and 1 mM TCEP prior to the experiment. Titrations were performed by first injecting 0.5 μl of 250 or 500 µM BID BH3 peptides into a solution of 20 or 50 µM BAK followed by additional 2 μl injections. […] Results were analyzed using Origin software (OriginLab) provided by MicroCal. Binding constants (KD) and thermodynamic parameters were calculated from the average of two or three individual titrations by fitting the data to a single site binding model using a nonlinear least-squares fitting algorithm.

[2] = target: T2, I81R(3) BAK (Homo sapiens, UniProt Q16611, I81R); assay: Liposome permeabilization assay: BH3 peptide activation of I81R(3) BAK receptor; format: biochemical; details: 50 nM mutant BAK; Suppl. Fig. 4f
T2 construct: C-terminus truncated recombinant human BAK containing C-terminal 6× histidine tag (MEAS-BAK); made in house; host or cells: E. coli T7 Express pLac I/Y
T2 sequence (Q16611 1-186 I81R limits assumed): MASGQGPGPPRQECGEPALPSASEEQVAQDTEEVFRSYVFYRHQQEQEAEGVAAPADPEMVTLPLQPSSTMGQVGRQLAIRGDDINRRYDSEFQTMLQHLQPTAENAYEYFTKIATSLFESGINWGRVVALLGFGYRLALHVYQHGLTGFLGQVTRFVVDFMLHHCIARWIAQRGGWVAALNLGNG
Protocol: We next compared activation of mutant BAK receptors by WT BID BH3 and WT BAK BH3 peptide ligands. At concentrations above 1 µM, both peptide ligands would activate WT or V74A(1) BAK (Supplementary Figs. 3e, 4d, e, and Supplementary Table 1).
We performed liposome permeabilization assays as previously described[43]–[46]. […] (nickel salt) [DGS NTA(Ni), 2.5 μM final concentration in each assay] (Avanti Polar Lipids). We prepared 12.5 mM fluorophore; 8-aminonaphthalene-1, 3, 6-trisulfonic acid, disodium salt (ANTS) and 45 mM quencher; p-xylene-bis-pyridiniumbromide (DPX) in LUV buffer (10 mM HEPES pH 6.8, 200 mM KCl and 5 mM MgCl2). We mixed the lipid film in ANTS/DPX solution by vortexing and sonication (~15 min) followed by extrusion through polycarbonate membrane of 2 μm pore size (Avanti Polar lipids) to generate homogenous large unilamellar vesicles (LUVs). We separated LUVs from free ANTS/DPX by S500 size exclusion chromatography and stored them at 4 °C in the dark. We prepared peptide and protein dilutions in 96-well black flat bottom plates (Costar) kept on ice. ANTS release from permeabilized liposomes causes an increase in fluorescence, which we monitored at 37 °C for 90 min using a CLARIOSTAR microplate reader (BMG Labtech) set at excitation and emission wavelengths of 360 and 530 nm, respectively. We normalized the data relative to maximum and minimum fluorescence induced by 3% CHAPS and buffer controls, respectively. We quantified liposome permabilization by integrating area under curve (AUC) of normalized traces based on the Simpson’s equation, and analyzed that data in Excel and GraphPad Prism. AUC measurements reflect the kinetic and extent of liposome permeabilization and provide quantitative means for comparison between different experimental conditions (e.g., BAK mutants with gross or partial variation in activity). Variability in permeabilization of different liposomes is common and our analyses compare among conditions investigated with the same liposomes. […]

[3] = target: T3, Human BAK-∆TM-His6 (BAK) (Homo sapiens, UniProt Q16611); details: ref Moldoveanu et al NSMB (2013) 20:589; cited from earlier work
T3 construct: C-terminus truncated recombinant human BAK containing C-terminal 6× histidine tag (MEAS-BAK); made in house; host or cells: E. coli T7 Express pLac I/Y
T3 sequence (Q16611 1-186 limits assumed): T2 sequence (Q16611 1-186 I81R limits assumed) with R81I
Text: page 33: helix 1 to be important, and the idea that this could be achieved through somewhat different molecular interactions is neither surprising nor novel. We appreciate the reviewer’s viewpoint but respectfully disagree. We clarify the distinction between W(3)W(5) BID BH3 and BIM-h3Pc-RT inactivated complexes by explaining that stabilization of helix 1 is through indirect contacts in the former (allosteric) and through direct contact in the latter “glue-like” complex. This distinction is now discussed in the highlighted region on pg. 16 being key for the design of small molecule BH3 mimetic ...

Row | SMILES | ITC -T∆S [1] | ITC ∆G [1] | ITC ∆H [1] | liposome permeabilization by 50 nM I81R(3) BAK receptor [2] | fold less potent than activated full-length BID (N/C BID) [3]
1 | CC[C@H](C)[C@H](NC(=O)[C@H](CO)NC(=O)[C@H](CCCNC(=N)N)NC(=O)[C@H](CC(=O)O)NC(=O)[C@H](CCSC)NC(=O)[C@H](CO)NC(=O)[C@H](CC(=O)O)NC(=O)CNC(=O)[C@@H](NC(=O)[C@H](CCC(N)=O)NC(=O)[C@H](C)NC(=O)[C@H](CC(C)C)NC(=O)[C@H](Cc1c[nH]cn1)NC(=O)[C@H](CCCNC(=N)N)NC(=O)[C@H](C)NC(=O)[C@@H](NC(=O)[C@H](CC(N)=O)NC(=O)[C@H](CCCNC(=N)N)NC(=O)[C@@H](NC(=O)[C@@H](NC(=O)[C@H](CC(=O)O)NC(=O)[C@H](CCC(=O)O)NC(C)=O)[C@@H](C)CC)[C@@H](C)CC)[C@@H](C)CC)C(C)C)C(N)=O [WT BID BH3, reference compound] | 0.41 ± 0.11 kcal/mol | -6.34 ± 0.04 kcal/mol | -6.75 ± 0.07 kcal/mol | neither peptide ligands could promote liposome permeabilization | ~ 100 x
2 | CC[C@H](C)[C@H](NC(=O)[C@H](C)NC(=O)[C@H](CC(C)C)NC(=O)[C@H](CCC(N)=O)NC(=O)[C@H](CCCNC(=N)N)NC(=O)CNC(=O)[C@@H](NC(=O)[C@H](CCC(N)=O)NC(=O)CNC(=O)[C@H](CCSC)NC(=O)[C@@H](NC(=O)[C@H](CO)NC(=O)[C@H](CO)NC(C)=O)[C@@H](C)O)C(C)C)C(=O)N[C@H](C(=O)NCC(=O)N[C@@H](CC(=O)O)C(=O)N[C@@H](CC(=O)O)C(=O)N[C@H](C(=O)N[C@@H](CC(N)=O)C(=O)N[C@@H](CCCNC(=N)N)C(=O)N[C@@H](CCCNC(=N)N)C(=O)N[C@@H](Cc1ccc(O)cc1)C(N)=O)[C@@H](C)CC)[C@@H](C)CC [WT BAK BH3] |  |  |  | neither peptide ligands could promote liposome permeabilization | 
